Data reported in patent US20060270648A1, “USE OF POLYAMINES WITH ANTIBIOTICS” (priority 2005, published 2006).
In brackets after ≈: the same amount, converted by molar mass. Where two headings read alike, the source gives them in different places.

What was measured:
[1] = test system: MRSA Staphylococcus aureus 700699; assay: MIC of antibiotics against MRSA Staphylococcus aureus 700699 with or without spermine; assay type: cell-based; details: for MIC: Staphylococcus aureus, MRSA, read-out: MICs in the absence or presence of spermine: No add; for MICs in the absence or presence of spermine: Spermine (1 mM): with 1 mM spermine
[2] = test system: E. coli (K10, K12, C921-61); assay: MIC of antibiotics against E. coli strains with or without polyamines (FIG. 3); assay type: cell-based; details: E. coli K10, K12, C921-61 and S. typhimurium LT2
[3] = test system: Salmonella typhimurium LT2; details: for MICs in the indicated concentrations (mM) of polyamines: Spermine (1 mM): with 1 mM spermine; for MICs in the indicated concentrations (mM) of polyamines: Spermidine (20 mM): with 20 mM spermidine;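 on all read-outs here: Two-fold agar or broth dilution in Mueller-Hinton broth, MIC taken as lowest drug concentration without visible turbidity, tested alone or combined with polyamines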
[4] = test system: Salmonella typhimurium LT2; assay: microbe, parasite or virus in culture; details: Salmonella enterica, read-out: MICs in the indicated concentrations (mM) of polyamines: No add;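 further: Two-fold agar or broth dilution in Mueller-Hinton broth, MIC taken as lowest drug concentration without visible turbidity, tested alone or combined with polyamines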
[5] = test system: methicillin resistant Staphylococcus aureus (MRSA) Mu50; assay: MIC of antibiotics against MRSA Mu50 with or without spermine; assay type: cell-based; details: for MIC: Staphylococcus aureus, MRSA, read-out: MICs in the presence or absence of spermine (1 mM): No add; for MICs in the presence or absence of spermine (1 mM): Spermine: with 1 mM spermine
P. aeruginosa PAO1 = assay: MIC of antibiotics against P. aeruginosa PAO1 with or without polyamines; assay type: cell-based

With `O=C(N[C@H](CO)[C@H](O)c1ccc([N+](=O)[O-])cc1)C(Cl)Cl` [Chloramphenicol] the MIC ([1]; no spermine) was 8 µg/mL, the “MICs in the absence or presence of spermine: Spermine (1 mM)” value (“MICs in the absence or presence” below) [1] was 2 µg/mL and the “susceptibility with the combination of polyamines and antibiotics” value (“susceptibility with the combination” for short) [2] was “improved susceptibility”. For the same compound, the “MICs in the indicated concentrations (mM) of polyamines: Spermine (1 mM)” value (“MICs in the indicated concentrations … (1 mM)” below) [3] was 1 µg/mL, the “MICs in the indicated concentrations (mM) of polyamines: Spermidine (20 mM)” value (shortened to “MICs in the indicated concentrations … (20 mM)”) [3] was 1 µg/mL and the MIC [4] was 2 µg/mL (≈ 6.19 µM). The MIC ([5]; no spermine) was 8 µg/mL and the “MICs in the presence or absence of spermine (1 mM): Spermine” value (“MICs … (1 mM): Spermine” below) [5] was 2 µg/mL.
In the case of `CCN1CCN(C(=O)N[C@@H](C(=O)N[C@@H]2C(=O)N3[C@@H]2SC(C)(C)[C@@H]3C(=O)O)c2ccccc2)C(=O)C1=O` [Piperacillin], the MIC ([1]; no spermine) is reported as 32 µg/mL, the “MICs in the absence or presence” value [1] is reported as 2 µg/mL and the “susceptibility with the combination” value [2] is reported as “improved susceptibility”. The “MICs in the indicated concentrations … (1 mM)” value [3] was 0.5 µg/mL, the “MICs in the indicated concentrations … (20 mM)” value [3] was 0.25 µg/mL and the MIC [4] was 4 µg/mL (≈ 7.73 µM). The MIC ([5]; no spermine) was 32 µg/mL and the “MICs … (1 mM): Spermine” value [5] was 2 µg/mL.
With `CO[C@@]1(NC(=O)C(C(=O)O)c2ccc(O)cc2)C(=O)N2C(C(=O)O)=C(CSc3nnnn3C)CO[C@@H]21` (some centres unmarked) [Moxalactam] the MIC ([1]; no spermine) was over 512 µg/mL and the “MICs in the absence or presence” value [1] was over 32 µg/mL.
For `CN(C)[C@@H]1C(O)=C(C(N)=O)C(=O)[C@@]2(O)C(O)=C3C(=O)c4c(O)cccc4[C@@](C)(O)[C@H]3C[C@@H]12` [Tetracycline], the MIC ([1]; no spermine) was 32 µg/mL, the “MICs in the absence or presence” value [1] was 4 µg/mL and the “MICs in the indicated concentrations … (1 mM)” value [3] was 2 µg/mL. The “MICs in the indicated concentrations … (20 mM)” value [3] was 2 µg/mL, the MIC [4] was 2 µg/mL (≈ 4.5 µM) and the MIC ([5]; no spermine) was 32 µg/mL. For the same compound, the “MICs … (1 mM): Spermine” value [5] was 8 µg/mL.
`CCn1cc(C(=O)O)c(=O)c2cc(F)c(N3CCNCC3)cc21` [Norfioxacin] was tested, and the “MICs in the presence or absence of spermine (1 mM): No add” value ([5]; no spermine) was 128 µg/mL and the “MICs … (1 mM): Spermine” value [5] was 64 µg/mL.
With `O=C(Cc1cccs1)N[C@@H]1C(=O)N2C(C(=O)[O-])=C(C[n+]3ccccc3)CS[C@H]12` [Cephaloridine] the MIC ([1]; no spermine) was 16 µg/mL, the “MICs in the absence or presence” value [1] was 0.25 µg/mL and the MIC ([5]; no spermine) was 16 µg/mL. The “MICs … (1 mM): Spermine” value [5] was 0.25 µg/mL.
In the case of `NCCCCN` [Putrescine], the “MICs to carbenicillin in the indicated concentration of polyamines” value (“MICs to carbenicillin” for short) (P. aeruginosa PAO1; 0 mM polyamine) is reported as 64 µg/mL, the “MICs to carbenicillin” value (P. aeruginosa PAO1; 0.5 mM polyamine) is reported as 64 µg/mL and the “MICs to carbenicillin” value (P. aeruginosa PAO1; 1 mM polyamine) is reported as 32 µg/mL. The “MICs to carbenicillin” value (P. aeruginosa PAO1; 5 mM polyamine) was 32 µg/mL, the “MICs to carbenicillin” value (P. aeruginosa PAO1; 10 mM polyamine) was 32 µg/mL and the “MICs to carbenicillin” value (P. aeruginosa PAO1; 20 mM polyamine) was 16 µg/mL.
In the case of `CN[C@H](CC(C)C)C(=O)N[C@H]1C(=O)N[C@@H](CC(N)=O)C(=O)N[C@H]2C(=O)N[C@H]3C(=O)N[C@H](C(=O)N[C@H](C(=O)O)c4cc(O)cc(O)c4-c4cc3ccc4O)[C@H](O)c3ccc(c(Cl)c3)Oc3cc2cc(c3O[C@@H]2O[C@H](CO)[C@@H](O)[C@H](O)[C@H]2O[C@H]2C[C@](C)(N)[C@H](O)[C@H](C)O2)Oc2ccc(cc2Cl)[C@H]1O` [Vancomycin], the MIC [1] is reported as 4 µg/mL and the “MICs in the absence or presence” value [1] is reported as 4 µg/mL.
With `NC[C@H]1O[C@H](O[C@H]2[C@H](O)[C@@H](O[C@H]3O[C@H](CO)[C@@H](O)[C@H](N)[C@H]3O)[C@H](N)C[C@@H]2N)[C@H](O)[C@@H](O)[C@@H]1O` [Kanamycin] the MIC ([1]; no spermine) was over 16 µg/mL, the “MICs in the absence or presence” value [1] was over 16 µg/mL and the “MICs in the indicated concentrations … (1 mM)” value [3] was 2 µg/mL. For the same compound, the “MICs in the indicated concentrations … (20 mM)” value [3] was 4 µg/mL and the MIC [4] was 4 µg/mL (≈ 8.26 µM).
With `CC1(C)S[C@@H]2[C@H](NC(=O)[C@H](N)c3ccccc3)C(=O)N2[C@H]1C(=O)O` [Ampicillin] the MIC ([1]; no spermine) was at least 32 µg/mL, the “MICs in the absence or presence” value [1] was 2 µg/mL and the “susceptibility with the combination” value [2] was “improved susceptibility”. The MIC [4] was 16 µg/mL (≈ 45.8 µM), the MIC ([5]; no spermine) was at least 32 µg/mL and the “MICs … (1 mM): Spermine” value [5] was 2 µg/mL.
With `CC1(C)S[C@@H]2[C@H](NC(=O)[C@H](N)c3ccc(O)cc3)C(=O)N2[C@H]1C(=O)O` [Amoxicillin] the MIC ([1]; no spermine) was 16 µg/mL, the “MICs in the absence or presence” value [1] was 0.5 µg/mL and the MIC ([5]; no spermine) was 16 µg/mL. The “MICs … (1 mM): Spermine” value [5] was 0.5 µg/mL.
`CO/N=C(\C(=O)N[C@@H]1C(=O)N2C(C(=O)O)=C(CSc3nc(=O)c(=O)[nH]n3C)CS[C@H]12)c1csc(N)n1` [Ceftriaxone] was tested, and the MIC ([1]; no spermine) was over 512 µg/mL, the “MICs in the absence or presence” value [1] was 16 µg/mL and the MIC ([5]; no spermine) was over 512 µg/mL. The “MICs … (1 mM): Spermine” value [5] was 16 µg/mL.
For `CC(C)(O/N=C(\C(=O)N[C@@H]1C(=O)N2C(C(=O)[O-])=C(C[n+]3ccccc3)CS[C@H]12)c1csc(N)n1)C(=O)O` [Ceftazidime], the MIC ([1]; no spermine) was 256 µg/mL, the “MICs in the absence or presence” value [1] was 4 µg/mL and the MIC ([5]; no spermine) was 256 µg/mL. For the same compound, the “MICs … (1 mM): Spermine” value [5] was 4 µg/mL.
